Data on one molecule can be found in patent publication US10952999B2, “Inhibitor of cyclin-dependent kinase CDK9” (GENFLEET THERAPEUTICS (SHANGHAI) INC., priority 2017, dated 2021).

Common to all, as to type: cell-based
Test [1] has as its system acute myelocytic leukemia cell line (AML) HL-60. Kind of test: Effect on cell cycle distribution, PI staining, flow cytometry. The following applies: HL-60, 0.01-0.1 μM, 12, 24 or 48 hours. On the procedure:
(§1) In order to study in which cycle the cells were prevented after administration, in the three cell lines, acute promyelocytic leukemia cell line NB-4, acute myelocytic leukemia cell line (AML) HL-60, and acute myelocytic leukemia cell line (AML) MV4-11, the effects of compound 1 on the cell cycle distribution of these cell lines were tested. […] The cell cycle distribution was measured by flow cytometry (BD FACS Calibur).
For orientation: A flow cytometer gives signals particle by particle.

The test system of test [2] is acute promyelocytic leukemia cell line NB-4. Described as above. The following applies: NB-4, 0.01-0.1 μM, 12, 24 or 48 hours. The method, then:
as §1

Test [3] deals with acute myelocytic leukemia cell line (AML) MV4-11. The test is described as above. Particulars: MV4-11, 0.01-0.1 μM, 12, 24 or 48 hours. The method, then:
as §1

The subject of test [4] is human breast cancer cell MDA-MB-231. Kind of test: Cancer cell growth, Cell Titer-Glo cell viability assay, 72 hours. Particulars: MDA-MB-231, 72 hours. An outline of the steps: (§2)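 Read-out: luminescent ATP measurement (CellTiter-Glo) as proxy for live cells; GI50/IC50 derived from it.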
The subject of test [5] is human non-small cell lung cancer cell H1915. Described as above. The following applies: NCI-H1915, H1915, 72 hours. An outline of the steps: as §2
In test [6] the test system is human breast cancer cell T47D. The description is as above. An outline of the steps: as §2
In test [7] the test system is human breast cancer cell SK-Br-3. Described as above. Particulars: SK-Br-3, 72 hours. In a few lines:
as §2

The test system of test [8] is human lung adenocarcinoma cell H1355. The description is as above. Particulars: NCI-H1355, H1355, 72 hours. An outline of the steps: as §2
Test [9] deals with acute myelocytic leukemia (AML) OCI-AML-3. The test is described as above. Particulars: Homo sapiens, OCI-AML-3; OCI-AML3, 72 hours. An outline of the steps: as §2
Test [10] concerns MDS-RAEB (myelodysplastic syndrome-excess blasts type) cell line SKM-1. The test is described as above. Particulars: Homo sapiens; SKM-1, 72 hours. An outline of the steps:
as §2

Test [11] concerns human breast cancer cell MDA-MB-468. The description is as above. Particulars: MDA-MB-468, 72 hours. In a few lines: as §2
For test [12], the system named is human non-small cell lung cancer cell H2122. The description is as above. The following applies: NCI-H2122, H2122, 72 hours. In a few lines:
as §2

Test [13] concerns human non-small cell lung cancer cell H358. Described as above. The following applies: NCI-H358, H358, 72 hours. An outline of the steps:
as §2

Test [14] has as its system acute myeloid leukemia cell line HL-60. The test is described as above. The following applies: Homo sapiens; HL-60, 72 hours. An outline of the steps: as §2

A word on the IC50: it is the concentration that inhibits the measured activity by half. For orientation: GI50 means the concentration that inhibits growth by half. A higher GI50 goes with less potent growth inhibition. Turning to `COC[C@@H](C)N[C@H]1CC[C@H](Nc2cc(-c3csc(NCC4(C#N)CCOCC4)n3)c(Cl)cn2)CC1` [Compound 1, 4-(((4-(5-chloro-2-(((1R,4r)-4-(((R)-1-methoxypropyl-2-yl)amino)cyclohexyl)amino)pyridin-4-yl)thiazol-2-yl)amino)methyl)tetrahydro-2H-pyran-4-carbonitrile], the “effect on the cell cycle” value in test [1], in test [2] and in test [3] was “blocked the cells in G0-G1 phase” each time. Besides, the IC50 in test [4] turned out to be 74 nM; in [5], 37 nM; in test [6], 55 nM; in test [7], 40 nM; in test [8], 100 nM; in test [11], 18 nM. For the same molecule, the IC50 was 49 nM in [12] and 43 nM in [13]. Further, the GI50 stood at 33 nM in [9], 33 nM in [10] and 32 nM in test [14].
